{"source": "PubChem BioAssay (NCI)", "experiment_in_all_cases": "NCI-60 cell line screen, 384-well format", "key": {"SW-620 colon": {"tested_on": "SW-620 colon"}, "OVCAR-4 ovarian": {"tested_on": "OVCAR-4 ovarian"}, "A498 renal": {"tested_on": "A498 renal"}, "CAKI-1 renal": {"tested_on": "CAKI-1 renal"}, "NCI-H322M lung": {"tested_on": "NCI-H322M lung"}, "SNB-75 CNS": {"tested_on": "SNB-75 CNS"}, "DU-145 prostate": {"tested_on": "DU-145 prostate"}, "SK-MEL-5 melanoma": {"tested_on": "SK-MEL-5 melanoma"}, "RXF 393 renal": {"tested_on": "RXF 393 renal"}, "NCI-H23 lung": {"tested_on": "NCI-H23 lung"}, "HOP-62 NSCLC": {"tested_on": "HOP-62 NSCLC"}, "SR leukemia": {"tested_on": "SR leukemia"}, "SNB-19 CNS": {"tested_on": "SNB-19 CNS"}}, "note": "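The concentration for 50% growth inhibition is given as GI50. TGI marks complete inhibition of growth.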"}
{"compound": "CC(F)(F)c1cc(F)ccc1-c1sc2cc(O)ccc2c1Oc1ccc(/C=C/C(=O)O)cc1", "values": [{"measurement": "GI50", "setting": "SW-620 colon", "value": 16.9, "unit": "µM"}, {"measurement": "TGI", "setting": "SW-620 colon", "value": 30.9, "unit": "µM"}, {"measurement": "GI50", "setting": "OVCAR-4 ovarian", "value": 19.5, "unit": "µM"}, {"measurement": "TGI", "setting": "OVCAR-4 ovarian", "value": 74.9, "unit": "µM"}, {"measurement": "GI50", "setting": "A498 renal", "value": 13.3, "unit": "µM"}, {"measurement": "TGI", "setting": "A498 renal", "value": 29.1, "unit": "µM"}, {"measurement": "GI50", "setting": "CAKI-1 renal", "value": 15.1, "unit": "µM"}, {"measurement": "TGI", "setting": "CAKI-1 renal", "value": 29.9, "unit": "µM"}, {"measurement": "GI50", "setting": "NCI-H322M lung", "value": 14.4, "unit": "µM"}, {"measurement": "TGI", "setting": "NCI-H322M lung", "value": 33.6, "unit": "µM"}, {"measurement": "GI50", "setting": "SNB-75 CNS", "value": 15.5, "unit": "µM"}, {"measurement": "TGI", "setting": "SNB-75 CNS", "value": 33, "unit": "µM"}, {"measurement": "GI50", "setting": "DU-145 prostate", "value": 17.4, "unit": "µM"}, {"measurement": "TGI", "setting": "DU-145 prostate", "value": 42.3, "unit": "µM"}, {"measurement": "GI50", "setting": "SK-MEL-5 melanoma", "value": 12.2, "unit": "µM"}, {"measurement": "TGI", "setting": "SK-MEL-5 melanoma", "value": 24.7, "unit": "µM"}, {"measurement": "GI50", "setting": "RXF 393 renal", "value": 5, "unit": "µM"}, {"measurement": "TGI", "setting": "RXF 393 renal", "value": 18.5, "unit": "µM"}, {"measurement": "GI50", "setting": "NCI-H23 lung", "value": 16.3, "unit": "µM"}, {"measurement": "TGI", "setting": "NCI-H23 lung", "value": 30.7, "unit": "µM"}, {"measurement": "GI50", "setting": "HOP-62 NSCLC", "value": 9.88, "unit": "µM"}, {"measurement": "TGI", "setting": "HOP-62 NSCLC", "value": 21.8, "unit": "µM"}, {"measurement": "GI50", "setting": "SR leukemia", "value": 2080, "unit": "nM"}, {"measurement": "TGI", "setting": "SR leukemia", "value": 4.33, "unit": "µM"}, {"measurement": "GI50", "setting": "SNB-19 CNS", "value": 12.7, "unit": "µM"}, {"measurement": "TGI", "setting": "SNB-19 CNS", "value": 25.6, "unit": "µM"}]}
